# Measurements reported in publication PMC10770036, “Novel dual inhibitors of PARP and HDAC induce intratumoral STING-mediated antitumor immunity in triple-negative breast cancer” (Cell Death & Disease, 2024).
# Tests used:
# [1] = tested on: RAD51; assay: Western blot of RAD51 expression in TNBC cells; assay type: cell-based, human; details: 2.5 μM compared with the positive controls at 5 μM, 24 h
# Procedure: (§1) Western blot analysis was performed as previously described, and all western blot analyses were performed at least three times.
# (§2) Western blot analysis was performed as previously described. Briefly, whole cell or tissue lysates were prepared using ice-cold Nonidet P-40 buffer mixed with protease and phosphatase inhibitors (Roche, IN, USA) and centrifuged at 14,000 × g at 4 °C for 10 min. The protein lysates were fractionated by sodium dodecyl sulfate–polyacrylamide gel electrophoresis (SDS–PAGE) and transferred to polyvinylidene fluoride (PVDF) membranes (Merck, Darmstadt, Germany). Membranes were incubated in 1× TBST buffer containing 5% nonfat powdered milk at room temperature for 2 h. The indicated primary antibody was incubated with PVDF membranes, followed by a washing step using 1× TBST and a secondary antibody conjugated to HRP. Signal detection was carried out using the Western ECL Substrate kit (Bio-Rad, Hercules, CA, USA). […]
# [2] = tested on: MDA-MB-231 cells; assay: MTT cell viability assay, MDA-MB-231; details: Homo sapiens, MDA-MB-231, 72 h, read-out: IC50 MDA-MB-231
# Procedure: (§3) The viability assay was measured by a 3-(4,5-dimethylthiazol-2-yl)−2,5-diphenyltetrazolium bromide (MTT) assay.
# (§4) In brief, cells were seeded at a density of 6,000 cells in 96-well plates and cultured overnight. […] After aspiration of the medium, the formazan crystals were dissolved in 100 μL of DMSO. The absorbance at 490 nm was measured using a microplate reader (BioTek). All these analyses were performed at least three times.
# [3] = tested on: MCF-7 cells; assay: MTT cell viability assay, MCF-7; details: Homo sapiens, MCF7, 72 h, read-out: IC50 MCF-7
# Procedure: as §3, §4
# [4] = target: T1, PARP1 (Homo sapiens, UniProt P09874); assay: PARP1 enzymatic inhibition assay (PARP1 Colorimetric Assay Kit); assay type: biochemical
# T1 construct: purchased BPS Bioscience 80580
# Procedure: Briefly, the 1× histone mixture was added to each well and incubated overnight at 4 °C. Each well was washed three times with 200 µL 1× TBST buffer and filled with 200 µL Blocking buffer at room temperature for 90 min. Then, each well was filled with 25 µL of PARP master mixture (5 μL activated DNA + 2.5 μL 10× PARP Assay mixture + 2.5 μL 10× PARP buffer + 15 μL distilled water). Next, 5 µL of the compound of different concentrations was added to each well, and PARP enzyme was added and incubated at room temperature for 1 h. Next, streptavidin HRP solution was added and incubated at room temperature for 30 min. After adding 100 µL of colorimetric HRP substrate to each well, the plate was incubated until a blue color developed in the positive well, which contained PARP enzyme without inhibitors. The reaction was then quenched with 2 M sulfuric acid, and absorbance at 450 nm was measured using a microplate reader (BioTek, Winooski, VT, USA). After calculating the inhibition rate, the IC50 value was determined.
# [5] = target: T2, recombinant HDAC1 (Homo sapiens, UniProt Q13547); assay: HDAC1 inhibition assay (Ac-peptide-AMC fluorescence); assay type: biochemical
# T2 construct: purchased Active Motif
# Procedure: The in vitro HDAC inhibition assays were carried out by Sundia MediTech Co. Ltd. in Shanghai, China. […] Reactions were stopped with trypsin, and the samples were incubated for another 90 min at 37 °C. […] IC50 values were obtained using GraphPad Prism software.
# [6] = tested on: p-H2A.X; assay: Western blot of H2A.X phosphorylation (DNA damage) in TNBC cells; assay type: cell-based, human; details: TNBC cell lines, 48 h
# Procedure: as §1, §2
# T1 sequence (P09874 whole entry): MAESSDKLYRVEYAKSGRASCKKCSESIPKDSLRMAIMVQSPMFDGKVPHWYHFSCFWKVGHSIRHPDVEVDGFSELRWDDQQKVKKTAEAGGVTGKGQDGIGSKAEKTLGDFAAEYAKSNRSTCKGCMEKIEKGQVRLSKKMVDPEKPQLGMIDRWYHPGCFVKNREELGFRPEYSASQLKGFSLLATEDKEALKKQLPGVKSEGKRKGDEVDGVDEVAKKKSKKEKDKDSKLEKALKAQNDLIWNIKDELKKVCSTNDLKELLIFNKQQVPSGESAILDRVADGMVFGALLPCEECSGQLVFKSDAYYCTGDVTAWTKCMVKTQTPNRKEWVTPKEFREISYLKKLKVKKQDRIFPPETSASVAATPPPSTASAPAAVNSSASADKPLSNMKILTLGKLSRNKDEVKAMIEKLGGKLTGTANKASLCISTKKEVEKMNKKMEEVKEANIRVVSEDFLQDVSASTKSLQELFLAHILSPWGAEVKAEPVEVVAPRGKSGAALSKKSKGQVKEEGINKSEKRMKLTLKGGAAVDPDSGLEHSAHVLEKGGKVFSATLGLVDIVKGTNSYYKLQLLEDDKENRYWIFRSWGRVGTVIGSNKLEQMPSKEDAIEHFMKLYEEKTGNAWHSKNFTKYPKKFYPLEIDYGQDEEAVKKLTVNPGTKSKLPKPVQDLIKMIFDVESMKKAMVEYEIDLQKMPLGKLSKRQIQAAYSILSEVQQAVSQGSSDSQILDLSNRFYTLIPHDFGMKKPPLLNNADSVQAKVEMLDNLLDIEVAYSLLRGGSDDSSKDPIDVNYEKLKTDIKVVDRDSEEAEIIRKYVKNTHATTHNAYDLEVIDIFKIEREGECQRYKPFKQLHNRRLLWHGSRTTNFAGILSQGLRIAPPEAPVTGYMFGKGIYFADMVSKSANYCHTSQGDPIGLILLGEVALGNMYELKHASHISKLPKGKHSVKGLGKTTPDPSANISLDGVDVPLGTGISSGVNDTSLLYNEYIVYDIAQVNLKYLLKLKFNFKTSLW
# T2 sequence (Q13547 whole entry): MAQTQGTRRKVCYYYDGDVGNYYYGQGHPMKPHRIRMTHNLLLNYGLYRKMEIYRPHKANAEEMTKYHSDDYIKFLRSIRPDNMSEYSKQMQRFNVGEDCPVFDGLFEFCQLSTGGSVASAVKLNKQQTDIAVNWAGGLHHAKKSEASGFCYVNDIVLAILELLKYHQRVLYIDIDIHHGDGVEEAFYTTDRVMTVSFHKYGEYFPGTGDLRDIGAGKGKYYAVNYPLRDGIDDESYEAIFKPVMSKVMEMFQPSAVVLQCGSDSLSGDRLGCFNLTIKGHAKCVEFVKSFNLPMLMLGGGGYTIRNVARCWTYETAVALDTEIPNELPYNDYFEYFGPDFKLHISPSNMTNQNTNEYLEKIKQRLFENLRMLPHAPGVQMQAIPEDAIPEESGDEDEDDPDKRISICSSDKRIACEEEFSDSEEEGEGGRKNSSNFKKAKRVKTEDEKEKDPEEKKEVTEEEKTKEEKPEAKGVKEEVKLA
SMILES,inhibitory effect on RAD51 [1],IC50 [2],IC50 [3],IC50 [4],IC50 [5],p-H2A.X levels (DNA DSBs) [6]
Nc1cc(F)ccc1NC(=O)/C=C/c1ccc(CN2CCN(C(=O)c3cc(Cc4n[nH]c(=O)c5ccccc45)ccc3F)CC2)cc1 [Compound B102],more potent inhibitory effect on RAD51,160 ± 20 nM,13400 ± 3200 nM,19 nM,1690 nM,increased p-H2A.X (S136) levels
Nc1cc(F)ccc1NC(=O)CCc1ccc(CN2CCN(C(=O)c3cc(Cc4n[nH]c(=O)c5ccccc45)ccc3F)CC2)cc1 [Compound B302],–,2830 ± 400 nM,4930 ± 1090 nM,12.7 nM,> 10000 nM,increased p-H2A.X (S136) levels
